Measurements reported in ChEMBL document CHEMBL1131406, “Tripeptide growth hormone secretagogues” (Bioorg Med Chem Lett, 1998).
pEC50: −log10 of the molar value.

Species on record: Rattus norvegicus
Assay: Compound was tested in vitro for growth hormone release from rat pituitary cells; Inactive
Assay type: functional, cell-based
Conditions: pituitary gland cell; call rule not given here

With `CCOC(=O)[C@@H](CCc1ccccc1)NC(=O)[C@H](Cc1c[nH]c2ccccc12)NC(=O)C(C)(C)N` the EC50 was “Not Active”.
For `CC(C)(N)C(=O)N[C@H](Cc1c[nH]c2ccccc12)C(=O)NCc1cccc2ccccc12`, the EC50 was “Not Active”.
For `CCOC(=O)[C@@H](CCc1ccccc1)NC(=O)[C@@H](Cc1ccc2ccccc2c1)NC(=O)C(C)(C)N`, the EC50 was “Not Active”.
`CC(C)(N)C(=O)N[C@H](Cc1c[nH]c2ccccc12)C(=O)NCCc1ccccc1` was tested, and the EC50 was “Not Active”.

Species on record: Rattus norvegicus
Assay: Tested in vitro for growth hormone release from rat pituitary cells
Assay type: functional, cell-based, Pituitary gland cell
Conditions: Rattus norvegicus, Pituitary gland cell

`CCOC(=O)[C@H](Cc1ccccc1)NC(=O)[C@@H](Cc1c[nH]c2ccccc12)NC(=O)C(C)(C)N` and `CCOC(=O)[C@@H](Cc1ccccc1)NC(=O)[C@@H](Cc1c[nH]c2ccccc12)NC(=O)C(C)(C)N` are within 0.2 log units of each other in pEC50: 6.62 for the first, 6.46 for the second.

Going from `CCOC(=O)[C@H](CCc1ccccc1)NC(=O)[C@@H](Cc1c[nH]c2ccccc12)NC(=O)C(C)(C)N` to `CCOC(=O)[C@H](CCCc1ccccc1)NC(=O)[C@@H](Cc1c[nH]c2ccccc12)NC(=O)C(C)(C)N`, the pEC50 falls from 8.52 to 6.09 (2.43 log units). The first is the more potent here.

Compared with `CCNC(=O)[C@@H](CCc1ccccc1)NC(=O)[C@@H](Cc1c[nH]c2ccccc12)NC(=O)C(C)(C)N`, `CC(C)(N)C(=O)N[C@H](Cc1c[nH]c2ccccc12)C(=O)N[C@H](CCc1ccccc1)C(=O)O` is lower in pEC50: 6.61 for the first, under 6.30 for the second. The first is the more potent here.

`CCOC(=O)[C@@H](CCc1ccccc1)NC(=O)[C@@H](Cc1cccc2ccccc12)NC(=O)C(C)(C)N` and `CCOC(=O)[C@@H](CCCc1ccccc1)NC(=O)[C@@H](Cc1c[nH]c2ccccc12)NC(=O)C(C)(C)N` cannot be ordered by pEC50: under 7.30 for the first, 5.94 for the second.

First: CCOC(=O)[C@H](CCc1ccccc1)N(C)C(=O)[C@@H](Cc1c[nH]c2ccccc12)NC(=O)C(C)(C)N
Second: CCOC(=O)[C@H](Cc1ccccc1)N(C)C(=O)[C@@H](Cc1c[nH]c2ccccc12)NC(=O)C(C)(C)N
The pEC50 of the first is 0.83 log units lower: 6.57 for the first, 7.40 for the second. The second is the more potent here.

Going from `CC(C)OC(=O)[C@@H](CCc1ccccc1)NC(=O)[C@@H](Cc1c[nH]c2ccccc12)NC(=O)C(C)(C)N` to `COC(=O)[C@@H](CCc1ccccc1)NC(=O)[C@@H](Cc1c[nH]c2ccccc12)NC(=O)C(C)(C)N`, the pEC50 falls from 8.40 to 7.74 (0.66 log units).

Going from `CC(C)(N)C(=O)N[C@H](Cc1c[nH]c2ccccc12)C(=O)NCCc1cccc2ccccc12` to `CCOC(=O)[C@H](Cc1cccc2ccccc12)NC(=O)[C@@H](Cc1c[nH]c2ccccc12)NC(=O)C(C)(C)N`, the pEC50 rises from 6.07 to 7.40 (1.33 log units). The second is the more potent here.

First: CCOC(=O)[C@H](Cc1ccc2ccccc2c1)NC(=O)[C@@H](Cc1c[nH]c2ccccc12)NC(=O)C(C)(C)N
Second: CC(C)(N)C(=O)N[C@H](Cc1c[nH]c2ccccc12)C(=O)NCc1ccc2ccccc2c1
The pEC50 of the first is 1.37 log units lower: 5.70 for the first, 7.07 for the second. The second is the more potent here.

`CC(C)(N)C(=O)N[C@H](Cc1c[nH]c2ccccc12)C(=O)N[C@H](CCc1ccccc1)C(=O)OCc1ccccc1` and `CC(C)(N)C(=O)N[C@H](Cc1c[nH]c2ccccc12)C(=O)NCCCc1ccccc1` are within 0.2 log units of each other in pEC50: 6.30 for the first, 6.41 for the second.

Compound `CC(C)(N)C(=O)N[C@H](Cc1c[nH]c2ccccc12)C(=O)NCCCCc1ccccc1` has a pEC50 of 6.15.

Same assay, conditions: pituitary gland cell

With `CCOC(=O)[C@@H](CCc1ccccc1)NC(=O)[C@@H](Cc1c[nH]c2ccccc12)NC(=O)C(C)(C)N` the pEC50 was 7.30.
